Measured values from ChEMBL document CHEMBL1133312, “S-nitrosothiols as novel, reversible inhibitors of human rhinovirus 3C protease” (Bioorg Med Chem Lett, 2000).
pKi: −log10 of the molar value. Square brackets hold non-standard residues; d marks the D form. Peptide text beside a SMILES is read from it. Cys(NO) = N[C@@H](CSN=O)C(=O)O

Assays:
rhinovirus B14 [1] = test: Compound was evaluated for the inactivation of HRV 14 3C protease activity expressed as kinact; type: functional, human rhinovirus type 14
rhinovirus B14 [2] = test: Compound was evaluated for the inactivation of HRV 14 3C protease activity expressed as KI; type: functional, human rhinovirus type 14

SMILES	K inact (rhinovirus B14 [1]) [min⁻¹]	pKi (rhinovirus B14 [2])
C[C@@H](CSN=O)C(=O)N1CCC[C@H]1C(=O)O	0.457	2.68
CC(=O)N[C@@H](C(=O)NC1C(O)OC(CO)C(O)C1O)C(C)(C)SN=O (stereo not given in full)	0.982	2.30
CC(=O)N[C@@H](C(=O)O)C(C)(C)SN=O	0.243	2.73
CC(=O)N[C@@H](CCC(=O)O)C(=O)N[C@@H](C)C(=O)N[C@@H](CC(C)C)C(=O)N[C@@H](Cc1ccccc1)C(=O)N[C@@H](CCC(N)=O)C(=O)N[C@@H](CSN=O)C(=O)NCC(=O)O (Ac-EALFQ[Cys(NO)]G-OH)	0.107	4.70
N[C@@H](CCC(=O)N[C@@H](CSN=O)C(=O)NCC(=O)O)C(=O)O [S-NITROSOGLUTATHIONE]	0.237	3.44
